Where a name gives a salt, the structure may show the parent alone. Read-outs that look alike come from different tables or passages of the source.
How the values were obtained:
[1] = molecular target: T1, Human NPY1 receptor (Homo sapiens, UniProt P25929); assay: Human NPY1 receptor binding assay ([125I]PYY, SK-N-MC cells); details: [125I]PYY, SK-N-MC cells; read-out: hNPYI IC50
T1 construct: host or cells: SK-N-MC cells
T1 sequence (P25929 1-384): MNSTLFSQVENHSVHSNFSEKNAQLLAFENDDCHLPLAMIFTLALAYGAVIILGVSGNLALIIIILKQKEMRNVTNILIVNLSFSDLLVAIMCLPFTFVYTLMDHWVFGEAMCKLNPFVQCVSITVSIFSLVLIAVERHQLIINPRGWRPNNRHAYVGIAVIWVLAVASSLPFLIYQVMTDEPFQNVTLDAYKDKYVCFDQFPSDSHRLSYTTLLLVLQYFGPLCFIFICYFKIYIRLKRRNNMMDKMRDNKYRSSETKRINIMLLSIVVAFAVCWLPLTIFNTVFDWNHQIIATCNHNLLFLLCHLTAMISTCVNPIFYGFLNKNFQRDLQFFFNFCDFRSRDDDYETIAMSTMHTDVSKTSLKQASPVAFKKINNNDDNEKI
Experimental: A. Human NPY1 Receptor Binding Assay
This is a modification of Gordon et al., (J. Neurochem. 55:506-513, 1990). SK-N-MC cell (ATCC, Rockville, Md.) were plated in 24-well plates. Once confluent, cells were rinsed with Dulbecco's phosphate buffered saline (DPBS). Cells were then preincubated in binding buffer containing serum-free DMEM, 25 mM HEPES (pH 7.3), 0.5% bovine serum albumin (BSA), 0.1% bacitracin and 0.1 mM phenylmethylsulfonylfluoride for 30 minutes at room temperature. Drug dilution and [125I]PYY (˜50 pM: NEN-DuPont) were added to the wells, and the cells were incubated for an additional 3 hours at room temperature, followed by rinsing with ice-cold DPBS. Nonspecific binding was defined with 1 μM NPY. After lysing the cells with 1% Triton X-100, the amount of radioactivity in the lysates was quantitated with a gamma counter.

[2] = molecular target: T2, Y2 receptor (Homo sapiens, UniProt P49146); assay: Y2 receptor binding assay ([125I]PYY, membrane protein); details: [125I]PYY, membrane protein; read-out: hNPY2 IC50
T2 sequence (P49146 1-381): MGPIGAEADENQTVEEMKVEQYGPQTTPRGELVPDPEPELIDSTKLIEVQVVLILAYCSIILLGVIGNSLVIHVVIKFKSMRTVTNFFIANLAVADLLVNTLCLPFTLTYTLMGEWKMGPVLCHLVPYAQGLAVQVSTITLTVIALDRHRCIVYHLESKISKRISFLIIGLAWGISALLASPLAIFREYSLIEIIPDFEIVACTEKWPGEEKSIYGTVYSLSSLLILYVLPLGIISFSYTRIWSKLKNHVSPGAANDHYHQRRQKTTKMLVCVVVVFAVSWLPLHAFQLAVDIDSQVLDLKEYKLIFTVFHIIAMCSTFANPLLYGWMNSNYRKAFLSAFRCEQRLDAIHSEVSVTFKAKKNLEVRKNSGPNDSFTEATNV
Summary of the method: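 Filtration binding with membrane protein and drug dilution, 2 h at room temperature with mixing, radioactivity counted by gamma or scintillation. Y2: 25 pM [125I]PYY in Krebs-Ringer bicarbonate pH 7.4 with 0.01% BSA, nonspecific by 1 μM NPY. Y4/PP1: 50 pM [125I]hPP in HEPES-buffered saline pH 7.4 with protease inhibitors and 0.3% BSA, nonspecific by 1 μM hPP.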

[3] = molecular target: human Y4/PP1 receptor (Homo sapiens, UniProt P50391); assay: Human Y4/PP1 receptor binding assay ([125I]human PP, membrane protein); details: [125I]human PP, membrane protein; read-out: hNPY4 IC50
Chain of human Y4/PP1 receptor (P50391 whole entry): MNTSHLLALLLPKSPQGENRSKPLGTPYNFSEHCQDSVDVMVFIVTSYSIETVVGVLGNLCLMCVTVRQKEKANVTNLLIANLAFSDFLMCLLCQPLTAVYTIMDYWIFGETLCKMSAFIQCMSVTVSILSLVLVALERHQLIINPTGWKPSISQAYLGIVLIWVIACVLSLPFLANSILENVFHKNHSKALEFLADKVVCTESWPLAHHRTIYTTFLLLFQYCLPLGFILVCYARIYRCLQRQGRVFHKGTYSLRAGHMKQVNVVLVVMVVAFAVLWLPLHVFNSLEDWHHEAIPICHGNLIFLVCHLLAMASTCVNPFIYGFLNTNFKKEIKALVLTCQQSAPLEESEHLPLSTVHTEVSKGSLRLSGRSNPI
Experimental: B. Human Y2 and Y4/PP1 Receptor Binding Assays
Binding assays were performed on GF/C Millipore 96-well plates pretreated with 0.02% polyethylenimine. The binding buffer for rat Y2 binding is Krebs-Ringer bicarbonate (pH 7.4) containing 0.01% BSA and 0.005% bacitracin. Samples consist of membrane protein, 25 pM [1251]PYY and drug dilution. Nonspecific binding is defined by 1 μM NPY. The binding buffer for human Y4/PP1 binding consists of 137 mM NaCl, 5.4 mM KCl, 0.44 mM KH2PO4, 1.26 mM CaCl2, 0.81 mM MgSO4, 20 mM HEPES, 1 mM dithiothreitol, 0.1% bacitracin, 100 mg/l streptomycin sulfate, 1 mg/l aprotinin, 10 mg/ml soybean trypsin inhibitor and 0.3% BSA, pH 7.4. Samples consist of membrane protein, 50 pM human [1251]human PP (hPP: NEN DuPont, Boston, Mass.) and drug dilution. 1 μM hPP is used to define nonspecific binding.
After a 2 hour incubation at room temperature with constant mixing, the samples are aspirated on a vacuum manifold, and rinsed with ice-cold binding buffer. The amount of radioactivity in each well is quantitated with either gamma counting or liquid scintillation.

[4] = molecular target: T3, Human NPY5 receptor (Homo sapiens, UniProt Q15761); assay: Human NPY5 receptor binding assay ([125I]PYY, membrane protein); details: read-out: hNPY5 IC50
T3 sequence (Q15761 1-445): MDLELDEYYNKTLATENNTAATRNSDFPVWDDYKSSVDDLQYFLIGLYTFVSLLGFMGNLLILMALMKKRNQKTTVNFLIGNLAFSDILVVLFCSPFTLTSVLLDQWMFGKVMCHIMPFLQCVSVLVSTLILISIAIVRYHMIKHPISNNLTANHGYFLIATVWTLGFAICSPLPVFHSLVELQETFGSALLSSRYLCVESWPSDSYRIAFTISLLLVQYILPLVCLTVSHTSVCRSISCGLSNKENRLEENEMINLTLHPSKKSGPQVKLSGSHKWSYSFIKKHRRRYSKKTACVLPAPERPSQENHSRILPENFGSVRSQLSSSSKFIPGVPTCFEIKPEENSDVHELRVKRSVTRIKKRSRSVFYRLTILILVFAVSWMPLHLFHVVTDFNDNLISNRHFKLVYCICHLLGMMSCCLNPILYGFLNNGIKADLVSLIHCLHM
Summary of the method: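 Membrane protein incubated 2 h at room temperature with 75-100 pM porcine [125I]PYY and compound in pH 7.4 Tris buffer with salts, 0.1% BSA and bacitracin. Nonspecific binding with 1 μM PYY. Filtration, then gamma or scintillation counting.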

[5] = molecular target: T4, Rat NPY5 receptor (Rattus norvegicus, UniProt Q63634); assay: Rat NPY5 receptor binding assay ([125I]PYY, membrane protein); details: read-out: rNPY5 IC50
T4 sequence (Q63634 1-445): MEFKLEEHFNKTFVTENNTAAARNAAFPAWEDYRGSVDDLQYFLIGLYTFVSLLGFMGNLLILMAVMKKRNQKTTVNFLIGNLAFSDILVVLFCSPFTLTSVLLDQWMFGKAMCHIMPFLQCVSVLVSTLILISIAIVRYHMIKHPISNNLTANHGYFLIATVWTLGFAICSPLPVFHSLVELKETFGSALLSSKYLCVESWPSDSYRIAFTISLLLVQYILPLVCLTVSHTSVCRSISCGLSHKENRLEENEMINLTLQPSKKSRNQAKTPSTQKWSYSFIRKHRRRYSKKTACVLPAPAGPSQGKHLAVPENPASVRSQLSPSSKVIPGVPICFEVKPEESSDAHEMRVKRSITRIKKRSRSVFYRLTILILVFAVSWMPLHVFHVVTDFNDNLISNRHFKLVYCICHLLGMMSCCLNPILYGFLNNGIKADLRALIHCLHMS
Experimental: C. Human and Rat NPY5 Receptor Binding Assays
Binding assays are performed on GF/C Millipore 96well plates pretreated with 0.02% polyethylenimine. The binding buffer is 25 mM Tris, 120 mM NaCl, 5 mM KCl, 1.2 mM KH2PO4, 2.5 mM CaCl2, 1.2 mM MgSO4, 0.1% BSA and 0.5 mg/ml bacitracin, pH 7.4. Samples consist of membrane protein, 75-100 pM [125I]PYY (porcine, NEN-DuPont) and drug dilution. Nonspecific binding is defined by 1 μM PYY. After a 2 hour incubation at room temperature with constant mixing, the samples are aspirated on a vacuum manifold, and rinsed with ice-cold binding buffer. The amount of radioactivity in each well is quantitated with either gamma counting or liquid scintillation.

| Compound | IC50 [1] | IC50 [2] | IC50 [3] | IC50 ([4]; [125I]PYY) | IC50 ([5]; [125I]PYY) | IC50 ([4]; [125I]PYY binding) | IC50 ([5]; [125I]PYY binding) |
| --- | --- | --- | --- | --- | --- | --- | --- |
| Cl.O=C(CN1CCC(n2c(=O)[nH]c3ccccc32)CC1)Nc1ccc(C(=O)C(=O)c2ccccc2)cc1 [Compound 265, 2-[4-(2-Oxo-2,3-dihydro-benzoimidazol-1-yl]-N-[4-(oxo-phenyl-acetyl)-phenyl]-acetamide; hydrochloride] | > 5 µM | > 5 µM | > 5 µM | 0.005 µM | 0.005 µM |  |  |
| O=C(CN1CCC(n2c(=O)[nH]c3ccccc32)CC1)Nc1ccc(-c2cnco2)cc1 [Compound 267, N-(4-Oxazol-5-yl-phenyl)-2-[4-(2-oxo-2,3-dihydro-benzoimidazol-1-yl)-piperidin-1-yl]-acetamide; hydrate] | > 5 µM | > 5 µM | > 5 µM | 0.15 µM | 0.15 µM |  |  |
| O=C(CNCCCn1c(=O)[nH]c2ccccc21)Nc1ccc(C2CCCCC2)cc1 [Compound 276, N-(4-Cyclohexyl-phenyl)-2-[3-(2-oxo-2,3-dihydro-benzoimidazol-1-yl)-propylamino]-acetamide] |  | > 5 µM | > 5 µM | 1.1 µM |  |  |  |
| O=C(CN1CCC(n2c(=O)[nH]c3ccccc32)CC1)Nc1cccc(-c2ccccc2)c1 [Compound 323, N-Biphenyl-3-yl-2-[4-(2-oxo-2,3-dihydro-benzoimidazol-1-yl)-piperidin-1 yl]-acetamide; hydrochloride] | > 5 µM |  | > 5 µM | 0.026 µM | 0.026 µM |  |  |
| O=C(CN1CCC(n2c(=O)[nH]c3ccccc32)CC1)NC1CC2CCC1C2 (stereo not drawn) [Compound 326, N-Bicyclo[2.2.1]hept-2-yl-2-[4-(2-oxo-2,3-dihydro-benzoimidazol-1-yl)-piperidin-1-yl] acetamide] |  | > 5 µM | > 5 µM |  |  |  |  |
| COc1ccc(-c2ccccc2)cc1NC(=O)CN1CCC(n2c(=O)[nH]c3ccccc32)CC1 [Compound 328, N-(4-Methoxy-biphenyl-3-yl)-2-[4-(2-oxo-2,3-dihydro-benzoimidazol-1-yl)-piperidin-1-yl]-acetamide; hydrochloride] |  | > 5 µM | > 5 µM |  |  |  |  |
| Nc1ccccc1NC(=O)CN1CCC(n2c(=O)[nH]c3ccccc32)CC1 [Compound 331, N-(2-Amino-phenyl)-2-[4-(2-oxo-2,3-dihydro-benzoimidazol-1-yl)-piperidin-1-yl]-acetamide, reference compound] |  | > 5 µM | > 5 µM |  |  |  |  |
| N-{[(4-Cyclohexyl-phenylcarbamoyl)-methyl]-pyrrolidin-3-yl}-2,2,2-trifluoro-acetamide [Compound 197] |  |  |  |  |  | 0.021 µM | 0.02 µM |

Next, values leading:

| IC50 [1] | IC50 [2] | IC50 [3] | IC50 ([4]; [125I]PYY) | IC50 ([5]; [125I]PYY) | IC50 ([4]; [125I]PYY binding) | IC50 ([5]; [125I]PYY binding) | Compound |
| --- | --- | --- | --- | --- | --- | --- | --- |
| > 5 µM | > 5 µM |  | 0.61 µM | 0.53 µM |  |  | O=C(CN1CCC(n2c(=O)[nH]c3ccccc32)CC1)NCc1ccc(F)cc1F [Compound 332, N-(2,4-Difluoro-benzyl)-2-[4-2(oxo-2,3-dihydro-benzoimidazol-1-yl)-piperidin-1-yl]-acetamide, reference compound] |
|  | > 5 µM | > 5 µM |  |  |  |  | COC(=O)c1cc(Cl)ccc1NC(=O)CN1CCC(n2c(=O)[nH]c3ccccc32)CC1 [Compound 333, 5-Chloro-2-{2-[4-(2-oxo-2,3-dihydro-benzoimidazol-1-yl)-piperidin 1-yl]-acetylamino}-benzoic acid methyl ester, reference compound] |
|  | > 5 µM | > 5 µM |  |  |  |  | NC(=O)c1cc(N)ccc1NC(=O)CN1CCC(n2c(=O)[nH]c3ccccc32)CC1 [Compound 334, 5-Amino-2-{2-[4-(2-oxo-2,3-dihydro-benzoimidazol-1-yl)piperidin 1-yl]-acetylamino}-benzamide, reference compound] |
| > 5 µM |  | > 5 µM | 0.096 µM | 0.108 µM |  |  | O=C(CN1CCC(n2c(=O)[nH]c3ccccc32)CC1)Nc1ccc(Nc2ccccc2)cc1 [Compound 337, 2-[4-(2-Oxo-2,3-dihydro-benzoimidazol-1-yl)-piperidin-1-yl]-N-(4-phenylamino-phenyl)-acetamide, reference compound] |
| > 5 µM | > 5 µM | > 5 µM | 0.227 µM |  |  |  | O=C(CN1CCC(n2c(=O)[nH]c3ccccc32)CC1)Nc1cccc2ccc(O)cc12 [Compound 340, reference compound] |
| > 5 µM |  | > 5 µM | 0.2 µM | 0.115 µM |  |  | O=C(CN1CCOCC1)Nc1ccc(C2CCCCC2)cc1 [Compound 362, N-(4-Cyclohexyl-phenyl)-2-morpholin-4-yl-acetamide, reference compound] |
